Assay results taken from PubChem BioAssay (NCI).
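GI50 = concentration required for 50% inhibition of growth. TGI denotes the concentration required for complete inhibition of growth.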

Assays:
Test in all cases: growth of human tumour cells (NCI), 384-well format
RPMI-8226 leukemia = system: RPMI-8226 leukemia
SK-OV-3 ovarian = system: SK-OV-3 ovarian
IGROV1 ovarian = system: IGROV1 ovarian
DU-145 prostate = system: DU-145 prostate
HCT-15 colon = system: HCT-15 colon
BT-549 breast = system: BT-549 breast
A498 renal = system: A498 renal
NCI-H226 lung = system: NCI-H226 lung
786-0 renal = system: 786-0 renal
MALME-3M melanoma = system: MALME-3M melanoma
HS 578T breast = system: HS 578T breast
ACHN renal = system: ACHN renal
CCRF-CEM leukemia = system: CCRF-CEM leukemia
T-47D breast = system: T-47D breast
RXF 393 renal = system: RXF 393 renal
OVCAR-4 ovarian = system: OVCAR-4 ovarian
HOP-62 NSCLC = system: HOP-62 NSCLC
TK-10 renal = system: TK-10 renal
A549 NSCLC = system: A549 NSCLC
NCI-H23 lung = system: NCI-H23 lung
CAKI-1 renal = system: CAKI-1 renal
OVCAR-5 ovarian = system: OVCAR-5 ovarian
UACC-62 melanoma = system: UACC-62 melanoma
SN12C renal = system: SN12C renal
SR leukemia = system: SR leukemia
MDA-MB-468 breast = system: MDA-MB-468 breast
SK-MEL-28 melanoma = system: SK-MEL-28 melanoma
PC-3 prostate = system: PC-3 prostate
SK-MEL-5 melanoma = system: SK-MEL-5 melanoma
HT29 colon = system: HT29 colon
OVCAR-3 ovarian = system: OVCAR-3 ovarian
COLO 205 colon = system: COLO 205 colon
MOLT-4 leukemia = system: MOLT-4 leukemia
UO-31 renal = system: UO-31 renal
SW-620 colon = system: SW-620 colon
HOP-92 NSCLC = system: HOP-92 NSCLC
SK-MEL-2 melanoma = system: SK-MEL-2 melanoma
U251 glioblastoma = system: U251 glioblastoma
SF-268 CNS = system: SF-268 CNS
K-562 leukemia = system: K-562 leukemia
OVCAR-8 ovarian = system: OVCAR-8 ovarian
MDA-MB-231 breast = system: MDA-MB-231 breast
HCC-2998 colon = system: HCC-2998 colon
NCI-H522 lung = system: NCI-H522 lung
SNB-75 CNS = system: SNB-75 CNS
HCT-116 colon = system: HCT-116 colon
M14 melanoma = system: M14 melanoma

Cc1ccc(-c2nc(N)nc3c2nnn3Cc2cccc(CO[C@H]3CCOC3)n2)o1
GI50 (RPMI-8226 leukemia): 93.6 µM
TGI (RPMI-8226 leukemia): > 100 µM
GI50 (SK-OV-3 ovarian): > 100 µM
TGI (SK-OV-3 ovarian): > 100 µM
GI50 (IGROV1 ovarian): > 100 µM
TGI (IGROV1 ovarian): > 100 µM
GI50 (DU-145 prostate): > 100 µM
TGI (DU-145 prostate): > 100 µM
GI50 (HCT-15 colon): > 100 µM
TGI (HCT-15 colon): > 100 µM
GI50 (BT-549 breast): > 100 µM
TGI (BT-549 breast): > 100 µM
GI50 (A498 renal): > 100 µM
TGI (A498 renal): > 100 µM
GI50 (NCI-H226 lung): > 100 µM
TGI (NCI-H226 lung): > 100 µM
GI50 ([…]-0 renal): > 100 µM
TGI (786-0 renal): > 100 µM
GI50 (MALME-3M melanoma): > 100 µM
TGI (MALME-3M melanoma): > 100 µM
GI50 (HS 578T breast): > 100 µM
TGI (HS 578T breast): > 100 µM
GI50 (ACHN renal): > 100 µM
TGI (ACHN renal): > 100 µM
GI50 (CCRF-CEM leukemia): 72 µM
TGI (CCRF-CEM leukemia): > 100 µM
GI50 (T-47D breast): 32.4 µM
TGI (T-47D breast): > 100 µM
GI50 (RXF 393 renal): 97.4 µM
TGI (RXF 393 renal): > 100 µM
GI50 (OVCAR-4 ovarian): > 100 µM
TGI (OVCAR-4 ovarian): > 100 µM
GI50 (HOP-62 NSCLC): > 100 µM
TGI (HOP-62 NSCLC): > 100 µM
GI50 (TK-10 renal): > 100 µM
TGI (TK-10 renal): > 100 µM
GI50 (A549 NSCLC): > 100 µM
TGI (A549 NSCLC): > 100 µM
GI50 (NCI-H23 lung): > 100 µM
TGI (NCI-H23 lung): > 100 µM
GI50 (CAKI-1 renal): > 100 µM
TGI (CAKI-1 renal): > 100 µM
GI50 (OVCAR-5 ovarian): > 100 µM
TGI (OVCAR-5 ovarian): > 100 µM
GI50 (UACC-62 melanoma): > 100 µM
TGI (UACC-62 melanoma): > 100 µM
GI50 (SN12C renal): > 100 µM
TGI (SN12C renal): > 100 µM
GI50 (SR leukemia): > 73.2 µM
TGI (SR leukemia): > 100 µM
GI50 (MDA-MB-468 breast): 35.5 µM
TGI (MDA-MB-468 breast): 99 µM
GI50 (SK-MEL-28 melanoma): > 100 µM
TGI (SK-MEL-28 melanoma): > 100 µM
GI50 (PC-3 prostate): > 100 µM
TGI (PC-3 prostate): > 100 µM
GI50 (SK-MEL-5 melanoma): > 53.9 µM
TGI (SK-MEL-5 melanoma): > 100 µM
GI50 (HT29 colon): > 100 µM
TGI (HT29 colon): > 100 µM
GI50 (OVCAR-3 ovarian): > 100 µM
TGI (OVCAR-3 ovarian): > 100 µM
GI50 (COLO 205 colon): > 100 µM
TGI (COLO 205 colon): > 100 µM
GI50 (MOLT-4 leukemia): 42.2 µM
TGI (MOLT-4 leukemia): > 100 µM
GI50 (UO-31 renal): > 100 µM
TGI (UO-31 renal): > 100 µM
GI50 (SW-620 colon): > 100 µM
TGI (SW-620 colon): > 100 µM
GI50 (HOP-92 NSCLC): > 100 µM
TGI (HOP-92 NSCLC): > 100 µM
GI50 (SK-MEL-2 melanoma): > 100 µM
TGI (SK-MEL-2 melanoma): > 100 µM
GI50 (U251 glioblastoma): > 100 µM
TGI (U251 glioblastoma): > 100 µM
GI50 (SF-268 CNS): > 100 µM
TGI (SF-268 CNS): > 100 µM
GI50 (K-562 leukemia): 57.5 µM
TGI (K-562 leukemia): > 100 µM
GI50 (OVCAR-8 ovarian): > 100 µM
TGI (OVCAR-8 ovarian): > 100 µM
GI50 (MDA-MB-231 breast): 88.2 µM
TGI (MDA-MB-231 breast): > 100 µM
GI50 (HCC-2998 colon): > 100 µM
TGI (HCC-2998 colon): > 100 µM
GI50 (NCI-H522 lung): > 100 µM
TGI (NCI-H522 lung): > 100 µM
GI50 (SNB-75 CNS): > 100 µM
TGI (SNB-75 CNS): > 100 µM
GI50 (HCT-116 colon): > 100 µM
TGI (HCT-116 colon): > 100 µM
GI50 (M14 melanoma): > 100 µM
TGI (M14 melanoma): > 100 µM

Cc1cc(-c2nnc(N)nc2-c2ccc(F)cc2)cc(Cl)n1
GI50 (RPMI-8226 leukemia): 20.3 µM
TGI (RPMI-8226 leukemia): > 61.2 µM
GI50 (SK-OV-3 ovarian): > 100 µM
TGI (SK-OV-3 ovarian): > 100 µM
GI50 (IGROV1 ovarian): > 90.4 µM
TGI (IGROV1 ovarian): > 100 µM
GI50 (DU-145 prostate): > 100 µM
TGI (DU-145 prostate): > 100 µM
GI50 (HCT-15 colon): > 100 µM
TGI (HCT-15 colon): > 100 µM
GI50 (BT-549 breast): 88.8 µM
TGI (BT-549 breast): > 100 µM
GI50 (A498 renal): > 100 µM
TGI (A498 renal): > 100 µM
GI50 (NCI-H226 lung): > 100 µM
TGI (NCI-H226 lung): > 100 µM
GI50 ([…]-0 renal): > 100 µM
TGI (786-0 renal): > 100 µM
GI50 (MALME-3M melanoma): > 100 µM
TGI (MALME-3M melanoma): > 100 µM
GI50 (HS 578T breast): 62.8 µM
TGI (HS 578T breast): > 100 µM
GI50 (ACHN renal): > 100 µM
TGI (ACHN renal): > 100 µM
GI50 (CCRF-CEM leukemia): 48.3 µM
TGI (CCRF-CEM leukemia): > 100 µM
GI50 (T-47D breast): 35.7 µM
TGI (T-47D breast): > 100 µM
GI50 (RXF 393 renal): 28.5 µM
TGI (RXF 393 renal): > 100 µM
GI50 (OVCAR-4 ovarian): > 91.2 µM
TGI (OVCAR-4 ovarian): > 100 µM
GI50 (HOP-62 NSCLC): > 82.1 µM
TGI (HOP-62 NSCLC): > 100 µM
GI50 (TK-10 renal): 44.3 µM
TGI (TK-10 renal): > 100 µM
GI50 (A549 NSCLC): > 100 µM
TGI (A549 NSCLC): > 100 µM
GI50 (NCI-H23 lung): 32.5 µM
TGI (NCI-H23 lung): > 100 µM
GI50 (CAKI-1 renal): > 91.5 µM
TGI (CAKI-1 renal): > 100 µM
GI50 (OVCAR-5 ovarian): > 100 µM
TGI (OVCAR-5 ovarian): > 100 µM
GI50 (UACC-62 melanoma): 75.7 µM
TGI (UACC-62 melanoma): > 100 µM
GI50 (SN12C renal): > 100 µM
TGI (SN12C renal): > 100 µM
GI50 (SR leukemia): 33.9 µM
TGI (SR leukemia): > 100 µM
GI50 (MDA-MB-468 breast): 16.6 µM
TGI (MDA-MB-468 breast): 68.3 µM
GI50 (SK-MEL-28 melanoma): > 100 µM
TGI (SK-MEL-28 melanoma): > 100 µM
GI50 (PC-3 prostate): > 73.2 µM
TGI (PC-3 prostate): > 100 µM
GI50 (SK-MEL-5 melanoma): 88 µM
TGI (SK-MEL-5 melanoma): > 100 µM
GI50 (HT29 colon): > 100 µM
TGI (HT29 colon): > 100 µM
GI50 (OVCAR-3 ovarian): > 81.9 µM
TGI (OVCAR-3 ovarian): > 100 µM
GI50 (COLO 205 colon): > 100 µM
TGI (COLO 205 colon): > 100 µM
GI50 (MOLT-4 leukemia): 30.5 µM
TGI (MOLT-4 leukemia): > 90.8 µM
GI50 (UO-31 renal): 88.6 µM
TGI (UO-31 renal): > 100 µM
GI50 (SW-620 colon): > 81.1 µM
TGI (SW-620 colon): > 100 µM
GI50 (HOP-92 NSCLC): > 50.9 µM
TGI (HOP-92 NSCLC): > 100 µM
GI50 (SK-MEL-2 melanoma): > 100 µM
TGI (SK-MEL-2 melanoma): > 100 µM
GI50 (U251 glioblastoma): > 75.5 µM
TGI (U251 glioblastoma): > 100 µM
GI50 (SF-268 CNS): > 100 µM
TGI (SF-268 CNS): > 100 µM
GI50 (K-562 leukemia): 37.8 µM
TGI (K-562 leukemia): > 100 µM
GI50 (OVCAR-8 ovarian): > 92.6 µM
TGI (OVCAR-8 ovarian): > 100 µM
GI50 (MDA-MB-231 breast): > 85.7 µM
TGI (MDA-MB-231 breast): > 100 µM
GI50 (HCC-2998 colon): > 100 µM
TGI (HCC-2998 colon): > 100 µM
GI50 (NCI-H522 lung): 42.9 µM
TGI (NCI-H522 lung): > 100 µM
GI50 (SNB-75 CNS): > 100 µM
TGI (SNB-75 CNS): > 100 µM
GI50 (HCT-116 colon): 75.6 µM
TGI (HCT-116 colon): > 100 µM
GI50 (M14 melanoma): > 100 µM
TGI (M14 melanoma): > 100 µM
